Assay [1] concerns the target STIM1 and Orai1 in human embryonic kidney 293 cells (HEK293 cells) (Homo sapiens, UniProt Q96D31). To be noted: HEK293 co-expressing STIM1 and Orai1; cited from earlier work.
In another assay the test system is Jurkat cells. The note with it: Jurkat cells and colon cancer cells; cited from earlier work.
Assay [2] is described as follows: Fluorescence-based assay of store-operated calcium entry in Orai1/STIM1 stable cells (Table A JR251). The assay is classed as cell-based. To be noted: Homo sapiens, 50% inhibition of Peak-Basal fluorescence signal. The method, then:
A. Fluorescence-Based Assay of Store-Operated Calcium Entry in Orai1/STIM1 Stable Cells.
Cells stably expressing recombinant human STIM1 and Orai1 were generated by transfecting a human Orai1 expression plasmid (pcDNA3.1-Orai1-cmyc) into HEK-293 cells stably overexpressing human STIM1 (Roos et al. 2005 JCB 169(3): 435-445). Colonies of cells stably expressing both STIM1 and Orai1 proteins were selected and then subcloned by limiting dilution. Cells were cultured at 37° C./6% CO2 in complete medium with 10% FBS and appropriate selection markers.
The day prior to performing the assay Orai1/STIM1 stable cells were plated in 50 μL of complete medium at 90-95% confluence in a 384 well plate. Cells were grown at 37° C./6% CO2 overnight. On the day of the assay, 1.5 μM fluo-4-AM (Invitrogen) in complete medium was added to the cells, which were then incubated for 1 hour at RT. Cells were washed once in Ca^2+-free HBSS (Hank's buffered saline solution) and 35 μl of Ca^2+-free HBSS was added to each well. Test compounds were added to wells in a 10 μL Ca^2+-free HBSS solution, prepared at 4.5× the desired final concentration, and incubated for 30 minutes at RT. The initial baseline fluorescence signal was then measured with a FLIPR^384 (Molecular Devices) plate reader. Calcium entry was initiated by adding 5 μl of 10× CaCl2 (10 mM) in HBSS, and changes in cellular fluorescence were measured with the FLIPR^384 plate reader. In each well, the magnitude of the fluorescence signal as a result of calcium entry into the cell was determined by calculating the difference between the peak fluorescence signal measured after calcium addition and the initial baseline fluorescence signal (designated Peak-Basal). IC50 values were typically calculated as the concentration that inhibited 50% of the Peak-Basal signal (Table A).

The next assay has as its system RBL-2H3 cells. Put plainly: Fluorescence-based assay of store-operated calcium entry in RBL-2H3 cells. It counts as cell-based. To be noted: Rattus norvegicus, thapsigargin, 50% inhibition of Upslope. As to the method:
B. Fluorescence-Based Assay of Store-Operated Calcium Entry in RBL-2H3 Cells.
RBL-2H3 cells were obtained from ATCC and maintained in complete medium with 10% FBS at 37° C./6% CO2.
The day prior to performing the assay, RBL-2H3 cells are plated in 50 μL of complete medium in a 384 well plate. Cells are grown at 37° C./6% CO2 overnight and grow to 50-60% confluence by the next day. On the assay day, 1.5 μM Fluo-4-AM dye (Invitrogen) in complete medium is added and incubated for 1 hour at RT. Cells are washed twice in Ca^2+-free HBSS buffer and 35 μL Ca^2+-free HBSS buffer is added to each well. 10 μL of a test compound prepared in a Ca^2+-free HBSS solution at 4.5× of the desired concentration is added to a well and incubated for 5 minutes at RT. 10 μL of thapsigargin prepared in a Ca^2+-free HBSS solution at 5.5× of the desired concentration (5.5 uM) is added to each well and incubated for an additional 25 minutes. The initial baseline fluorescence signal is measured with a FLIPR^384 (Molecular Devices) plate reader. 5 μL of 12× calcium in HBSS (12 mM) is added and changes in cellular fluorescence are measured with the FLIPR^384 plate reader. In each well, the change in the fluorescent signal as a function of time due to calcium entry into the cell is determined by calculating the difference between the fluorescent signal measured 7 seconds after calcium addition and the initial baseline fluorescence signal at time zero (t=0). This parameter is designated Upslope. The IC50 value is calculated as the concentration at which 50% of the Upslope is inhibited.

Where only a bound is given, the exact number is not on record here.

Chain of STIM1 and Orai1 in human embryonic kidney 293 cells (HEK293 cells) (Q96D31 whole entry): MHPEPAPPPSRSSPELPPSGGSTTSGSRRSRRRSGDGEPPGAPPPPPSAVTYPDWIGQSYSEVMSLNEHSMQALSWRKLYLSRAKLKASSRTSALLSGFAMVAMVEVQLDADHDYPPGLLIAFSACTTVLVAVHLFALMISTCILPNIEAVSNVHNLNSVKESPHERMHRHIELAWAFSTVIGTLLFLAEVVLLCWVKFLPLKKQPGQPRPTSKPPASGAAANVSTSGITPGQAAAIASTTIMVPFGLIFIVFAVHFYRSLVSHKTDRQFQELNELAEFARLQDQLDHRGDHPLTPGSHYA

As for `NCCOB(c1ccccc1)c1ccccc1` [2-aminoethoxydiphenylborate], the “block of store-dependent Ca2+ entry” value in assay [1] was “completely blocked”.

Regarding `Cc1nnsc1C(=O)Nc1ccc(-n2nc(C(F)(F)F)cc2C(F)(F)F)cc1` [BTP-2], in the assay with Jurkat cells, the “inhibition of SOCE” value is recorded as “inhibits” and the inhibition of proliferation entry was “inhibits”.

What is called IC50 is the midpoint of a concentration-inhibition curve. As to `O=C(Nc1scc(-c2cnc(C(F)(F)F)nc2)c1C(=O)O)c1cc2ccccc2o1` [F], the IC50 (in assay [2]; in the assay with RBL-2H3 cells) was at most 0.5 µM throughout.

In the case of `O=C(CCc1cccc(F)c1)Nc1scc(-c2ccc(Cl)nc2)c1C(=O)O` [G], in assay [2], the IC50 was 1 to 10 µM.

As to `O=C(Nc1scc(-c2ccc3scnc3c2)c1C(=O)O)c1cc2ccccc2o1` [J], the IC50 (in assay [2]; with RBL-2H3 cells) was at most 0.5 µM throughout.

Regarding `Cc1ccc(-c2csc(NC(=O)c3cc4ccccc4o3)c2C(=O)O)c2ccccc12` [K], the figures for the IC50 (in assay [2]; with RBL-2H3 cells) were at most 0.5 µM and 1 to 10 µM, respectively.

Regarding `Cc1ccc(-c2csc(NC(=O)c3cc4ccccc4o3)c2C(=O)O)c2cccnc12` [L], the half-inhibitory concentration (IC50) (in assay [2]; in the assay with RBL-2H3 cells) was at most 0.5 µM in each case.

Source of the values: patent publication US8372991B2, “Trisubstituted thiophenes that modulate intracellular calcium” (Calcimedica, Inc., priority 2008, dated 2013).
